Patent US8354419B2, “Benzimidazole analogues for the treatment or prevention of flavivirus infections” (Vertex Pharmaceuticals Incorporated, priority 2009, dated 2013)

system: HCV (Ib) RNA replication; experiment: Cell-based luciferase reporter HCV (1b) RNA replication assay (replicon cell lines Huh-7 5.2 and ET); set-up: species or system Hepatitis C virus; settings: Hepatitis C virus, Huh-7, 96 h, HCV 1b genotype replicon, luciferase readout, 4 days incubation; read-out: EC50_1b
How it was run: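 Compounds were tested at eleven concentrations in duplicate over 4 days at 37 °C, 5% CO2. The cells were luciferase-reporter HCV 1b replicon lines 5.2 (NS5A adaptive mutation) or ET (NS4B mutation). Luminescence of lysates was measured, and IC50s were derived by nonlinear curve fitting.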

CC(C)[C@@H](C(=O)N1C[C@@H](C)C[C@H]1c1nc2cc(-c3ccc(-c4ccc5[nH]c([C@@H]6C[C@H](C)CN6C(=O)[C@H](C(C)C)N6CCOC6=O)nc5c4)cc3)ccc2[nH]1)N1CCOC1=O [Compound 306] was tested. Which EC50 did it give?
Its EC50 is ≤ 5 nM.

For COC(=O)N[C@H](C(=O)N1C[C@@H](C)C[C@H]1c1nc2cc(-c3cnc(-c4ccc5[nH]c([C@@H]6C[C@H](C)CN6C(=O)[C@@H](NC(=O)OC)C(C)C)nc5c4)cn3)ccc2[nH]1)C(C)C [Compound 307], which EC50 is on record?
Its EC50 is ≤ 5 nM.

Which EC50 does the source give for COC(=O)N[C@H](C(=O)N1[C@H](C)CC[C@H]1c1nc2cc(-c3ccc(-c4ccc5[nH]c([C@@H]6CC[C@@H](C)N6C(=O)[C@@H](NC(=O)OC)C(C)C)nc5c4)cc3)ccc2[nH]1)C(C)C [Compound 310] here?
Its EC50 is ≤ 5 nM.

With COC(=O)N[C@H](C(=O)N1[C@H](c2nc3cc(-c4ccc(-c5ccc6nc([C@@H]7CCC(C)(C)N7C(=O)[C@@H](NC(=O)OC)C(C)C)[nH]c6c5)cc4)ccc3[nH]2)CCC1(C)C)C(C)C [Compound 311] as the molecule, how does the EC50 read?
The EC50 was ≤ 5 nM.

With COC(=O)N[C@H](C(=O)N1[C@H](C)CC[C@H]1c1nc2cc(-c3ccc(-c4ccc5[nH]c([C@@H]6CC[C@H](C)N6C(=O)[C@@H](NC(=O)OC)C(C)C)nc5c4)cc3)ccc2[nH]1)C(C)C [Compound 313] as the molecule, how does the EC50 read?
The EC50 was ≤ 5 nM.

Which EC50 does the source give for COC(=O)N[C@H](C(=O)N1[C@@H](C)CC[C@H]1c1nc2cc(-c3cc(F)c(-c4ccc5[nH]c([C@@H]6CC[C@H](C)N6C(=O)[C@@H](NC(=O)OC)C(C)C)nc5c4)cc3F)ccc2[nH]1)C(C)C [Compound 314] here?
Its EC50 is ≤ 5 nM.

Which EC50 does the source give for COC(=O)N[C@H](C(=O)N1C[C@@H](C(F)F)C[C@H]1c1nc2cc(-c3ccc(-c4ccc5[nH]c([C@@H]6C[C@H](C(F)F)CN6C(=O)[C@@H](NC(=O)OC)C(C)C)nc5c4)cc3)ccc2[nH]1)C(C)C [Compound 315] here?
Its EC50 is ≤ 5 nM.

Which EC50 does the source give for COC(=O)N[C@H](C(=O)N1C[C@@H](C(F)(F)F)C[C@H]1c1nc2cc(-c3ccc(-c4ccc5[nH]c([C@@H]6C[C@H](C(F)(F)F)CN6C(=O)[C@@H](NC(=O)OC)C(C)C)nc5c4)cc3)ccc2[nH]1)C(C)C [Compound 316] here?
Its EC50 is ≤ 5 nM.

COC(=O)N[C@H](C(=O)N1[C@@H](C)CC[C@H]1c1nc2ccc(-c3ccc(-c4ccc5nc([C@@H]6CC[C@H](C)N6C(=O)[C@@H](NC(=O)OC)C(C)C)[nH]c5c4)c4nsnc34)cc2[nH]1)C(C)C [Compound 317] was tested. Which EC50 did it give?
The EC50 was ≤ 5 nM.

Which EC50 does the source give for COC(=O)N[C@H](C(=O)N1[C@@H](C)CC[C@H]1c1nc2cc(-c3ccc(-c4ccc5[nH]c([C@@H]6CC[C@H](C)N6C(=O)[C@@H](NC(=O)OC)C(C)C)nc5c4)c4c3OCO4)ccc2[nH]1)C(C)C [Compound 318] here?
Its EC50 is ≤ 5 nM.

COC(=O)N[C@H](C(=O)N1[C@@H](C)CC[C@H]1c1nc2cc(-c3csc4c(-c5ccc6[nH]c([C@@H]7CC[C@H](C)N7C(=O)[C@@H](NC(=O)OC)C(C)C)nc6c5)csc34)ccc2[nH]1)C(C)C [Compound 319] was tested. Which EC50 did it give?
The EC50 was ≤ 5 nM.

With COC(=O)N[C@H](C(=O)N1C[C@@H](C)C[C@H]1c1nc2cc(-c3ccc(-c4ccc5[nH]c([C@@H]6CC[C@H](C)N6C(=O)[C@@H](NC(=O)OC)C(C)C)nc5c4)cc3)ccc2[nH]1)C(C)C [Compound 320] as the molecule, how does the EC50 read?
Its EC50 is ≤ 5 nM.

For COC(=O)N[C@H](C(=O)N1[C@@H](C)CC[C@H]1c1nc2cc(-c3cc4sc(-c5ccc6[nH]c([C@@H]7CC[C@H](C)N7C(=O)[C@@H](NC(=O)OC)C(C)C)nc6c5)cc4s3)ccc2[nH]1)C(C)C [Compound 321], which EC50 is on record?
The EC50 was ≤ 5 nM.

For COC(=O)N[C@H](C(=O)N1[C@@H](C)CC[C@H]1c1nc2ccc(-c3ccc(-c4ccc5nc([C@@H]6CC[C@H](C)N6C(=O)[C@@H](NC(=O)OC)C(C)C)[nH]c5c4)c(F)c3)cc2[nH]1)C(C)C [Compound 322], which EC50 is on record?
Its EC50 is ≤ 5 nM.

With COC(=O)N[C@H](C(=O)N1C[C@@H](C)C[C@H]1c1nc2cc(-c3cc4sc(-c5ccc6nc([C@@H]7C[C@H](C)CN7C(=O)[C@@H](NC(=O)OC)C(C)C)n(C)c6c5)cc4s3)ccc2[nH]1)C(C)C [Compound 323] as the molecule, how does the EC50 read?
Its EC50 is ≤ 5 nM.

COC(=O)N[C@H](C(=O)N1[C@@H](C)CC[C@H]1c1nc2cc(C#CC#Cc3ccc4[nH]c([C@@H]5CC[C@H](C)N5C(=O)[C@@H](NC(=O)OC)C(C)C)nc4c3)ccc2[nH]1)C(C)C [Compound 324] was tested. Which EC50 did it give?
Its EC50 is ≤ 5 nM.

With COC(=O)N[C@H](C(=O)N1CC(C)(C)C[C@H]1c1nc2cc(-c3cc4sc(-c5ccc6[nH]c([C@@H]7CC(C)(C)CN7C(=O)[C@@H](NC(=O)OC)C(C)C)nc6c5)cc4s3)ccc2[nH]1)C(C)C [Compound 325] as the molecule, how does the EC50 read?
The EC50 was ≤ 5 nM.

For COC(=O)N[C@H](C(=O)N1CCC[C@H]1c1nc2cc(N3CCN(c4ccc5nc([C@@H]6CCCN6C(=O)[C@@H](NC(=O)OC)C(C)C)[nH]c5c4)[C@H](C)C3)ccc2[nH]1)C(C)C [Compound 326], which EC50 is on record?
Its EC50 is ≤ 5 nM.

Which EC50 does the source give for COC(=O)N[C@H](C(=O)N1C[C@@H](C)C[C@H]1c1nc2cc(-c3ccc(-c4ccc5[nH]c([C@@H]6CC(C)(C)CN6C(=O)[C@@H](NC(=O)OC)C(C)C)nc5c4)cc3)ccc2[nH]1)C(C)C [Compound 327] here?
Its EC50 is ≤ 5 nM.

How did the EC50 turn out when COC(=O)N[C@H](C(=O)N1CCC[C@H]1c1nc2cc(N3CCCN(c4ccc5nc([C@@H]6CCCN6C(=O)[C@@H](NC(=O)OC)C(C)C)[nH]c5c4)CC3)ccc2[nH]1)C(C)C [Compound 328] was run?
The EC50 was ≤ 5 nM.

Which EC50 does the source give for COC(=O)N[C@H](C(=O)N1CCC[C@H]1c1nc2cc(N3CCN(c4ccc5[nH]c([C@@H]6CCCN6C(=O)[C@@H](NC(=O)OC)C(C)C)nc5c4)[C@@H](C)C3)ccc2[nH]1)C(C)C [Compound 329] here?
The EC50 was ≤ 5 nM.

How did the EC50 turn out when COC(=O)N[C@H](C(=O)N1C[C@@H](C)C[C@H]1c1nc2cc(-c3ccc4cc(-c5ccc6[nH]c([C@@H]7C[C@H](C)CN7C(=O)[C@@H](NC(=O)OC)C(C)C)nc6c5)ccc4c3)ccc2[nH]1)C(C)C [Compound 330] was run?
Its EC50 is ≤ 5 nM.

With COC(=O)N[C@H](C(=O)N1C[C@@H](C)C[C@H]1c1nc2cc(-c3sc4c(C)c(-c5ccc6[nH]c([C@@H]7C[C@H](C)CN7C(=O)[C@@H](NC(=O)OC)C(C)C)nc6c5)sc4c3C)ccc2[nH]1)C(C)C [Compound 331] as the molecule, how does the EC50 read?
Its EC50 is ≤ 5 nM.

For COC(=O)N[C@H](C(=O)N1C[C@@H](C)C[C@H]1c1nc2cc(-c3cc4cc(-c5ccc6[nH]c([C@@H]7C[C@H](C)CN7C(=O)[C@@H](NC(=O)OC)C(C)C)nc6c5)sc4s3)ccc2[nH]1)C(C)C [Compound 332], which EC50 is on record?
The EC50 was ≤ 5 nM.
